The record followed here is ChEMBL document CHEMBL1153727, “Crotonkinensins A and B, diterpenoids from the Vietnamese medicinal plant Croton tonkinensis” (J Nat Prod, 2009).

The test system of test [1] is RAW264.7. The test is described as follows: Antiinflammatory activity in LPS-stimulated mouse RAW264.7 cells assessed as inhibition of beta-gal-tagged COX2 promoter activity pretreated 30 mins before LPS administration measured after 24 hrs by luciferase reporter gene assay relative to control. Type of test: functional, cell-based.
Test [2] deals with RAW264.7. The test can be described thus: Antiinflammatory activity in LPS-stimulated mouse RAW264.7 cells assessed as inhibition of COX2 protein expression at 10 to 100 uM pretreated 30 mins before LPS administration measured after 24 hrs by Western blot analysis. Type of test: functional, cell-based. (In general: A western blot detects proteins with antibodies after separation by electrophoresis.)

As a reminder, the IC50 is the midpoint of a concentration-inhibition curve.

Activity calls are given as the source filed them. The rule behind the calls is not given here.

Turning to `C=C1C(=O)[C@@]23[C@@H]4CC5=C(C(=O)CC5(C)C)[C@@](C)(O4)[C@@H]2CC[C@@H]1[C@H]3O` [CROTONKINENSIN A], in test [1], the IC50 was determined as 7.14 µM and the inhibition entry was “Dose-dependent effect”. Moreover, in test [2], the inhibition entry was “Active”.

Turning to `C=C1C(=O)[C@@]23[C@@H]4C[C@H]5C(=CCC5(C)C)[C@@](C)(O4)[C@@H]2CC[C@@H]1[C@H]3O` [CROTONKINENSIN B], in test [1], the IC50 is 5.49 µM and the inhibition entry was “Dose-dependent effect”. Besides, the inhibition result in test [2] is “Active”.
